These results are taken from US9586914B2, “Modulators of C3a receptors” (THE UNIVERSITY OF QUEENSLAND, priority 2011, dated 2017).

Where two headings read alike, the source gives them in different places.

One experiment concerns the target T1, C3a receptor (C3aR) (Homo sapiens, UniProt Q16581).
T1 construct: peripheral blood mononuclear cells were isolated from buffy coat (obtained from Australian Red Cross Blood Service, Kelvin Grove); endogenous in cells; host or cells: primary human monocyte-derived macrophages (HMDM) differentiated from CD14+ monocytes of donor buffy coat
T1 sequence (Q16581 1-482): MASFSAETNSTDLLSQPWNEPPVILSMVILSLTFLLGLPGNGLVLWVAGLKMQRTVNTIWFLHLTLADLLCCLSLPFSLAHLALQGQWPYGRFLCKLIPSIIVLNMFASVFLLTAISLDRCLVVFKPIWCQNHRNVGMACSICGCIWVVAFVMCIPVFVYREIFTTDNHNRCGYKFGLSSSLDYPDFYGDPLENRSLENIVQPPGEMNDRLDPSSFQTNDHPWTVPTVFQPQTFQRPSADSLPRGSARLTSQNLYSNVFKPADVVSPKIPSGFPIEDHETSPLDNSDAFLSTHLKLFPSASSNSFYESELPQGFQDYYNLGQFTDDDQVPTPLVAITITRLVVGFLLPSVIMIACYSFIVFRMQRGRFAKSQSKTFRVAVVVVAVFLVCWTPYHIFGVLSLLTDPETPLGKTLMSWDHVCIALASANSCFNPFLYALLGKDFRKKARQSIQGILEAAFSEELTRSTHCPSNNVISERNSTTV
Briefly: Competitive binding with [^125I]-C3a in HMDM. As to conditions: for remaining activity at 20 µM: 1 h, read-out: %[^125I]-C3a binding. The text has this:
For HMDM, peripheral blood mononuclear cells were isolated from buffy coat (obtained from Australian Red Cross Blood Service, Kelvin Grove) using Ficoll-paque density centrifugation (GE Healthcare Bio-Science, Uppsala, Sweden). CD^14+ monocytes were positively selected using CD^14+ MACS magnetic beads (Miltenyi Biotech, Auburn, Calif., USA). […] Cells were harvested by gentle scraping in saline solution and replated for use on Day 7. […] Unbound radioactivity was removed by filtration through glass microfiber filters GF/B (Whatman Iner. […] The filter was washed 3 times with cold buffer (50 mM Tris-HCl) pH 7.4. […] The −log IC50 for each compound was calculated for separate experiments and express as an arithmetic mean standard error (SE). IC50 values were expressed as a geometric mean.

The target of another experiment is T2, C3aR (Homo sapiens, UniProt Q16581).
T2 construct: peripheral blood mononuclear cells were isolated from buffy coat (obtained from Australian Red Cross Blood Service, Kelvin Grove); endogenous in cells; host or cells: primary human monocyte-derived macrophages (HMDM) differentiated from CD14+ monocytes of donor buffy coat
T2 sequence (Q16581 1-482): T1 sequence (Q16581 1-482)
As to the kind of experiment: Calcium mobilization assay in HMDM (agonist/antagonist activity). The class given is cell-based. As to conditions: for Emax at 10 µM: read-out: % agonist. The protocol:
Harvested HMDM cells were washed with 0.9% NaCl solution by centrifugation at 2500 rpm for 5 min, followed by resuspension of the cell pellet with complete media. Cells were seeded at 5×10^4 cells/well in a 96-well black-wall, clear bottom plate (DKSH, Zurich), and left overnight to adhere at 37° C. On the day of the experiment, supernatant was removed and cells were incubated in dye loading buffer (Hank's Balanced Salt Solution (HBSS) with 4 μM Fluo-3, 25 μL pluronic acid, 1% fetal bovine serum (FBS) and 2.5 mM probenecid) for one hour at 37° C. Cells were then washed twice with HBSS and transferred to a Fluorostar spectrofluorimeter (BMG, Durham N.C.) for oxazole compound injection and fluorescence measurements.
Various compounds were examined in the calcium mobilization assay for agonist or antagonist activity compared to hC3a and to the known antagonist SB290157.
HMDMs were seeded into black-wall, clear bottom 96-well plates (Corning Incorporated, NY) at 50,000 cells/well and left to incubate at 37° C. with 5% CO2 overnight for cells to adhere. The medium was removed before being washed with the assay buffer (1×HBSS, 20 mM HEPES, 2.5 mM probenecid, pH 7.4). To each well was added 100 μL of dye-loading buffer made up of 12 mL calcium buffer, 1% FBS, 25 μL of Fluo-3 dye (final concentration of 4 μM) and 25 μL of 20% pluronic acid. The plate was covered in aluminium foil to protect the light-sensitive dye and left to incubate at 37° C. for 1 h. The dye-loading buffer was removed before the cells were washed with the assay buffer to remove excess loading dye. To each well was added 50 μL of fresh assay buffer before the plate was loaded into a FLIPR (Fluorescent Imaging Plate Reader) that can inject treatments and measure any calcium release. To generate agonist plots, calcium release was monitored for 300 seconds. To generate antagonist plots, calcium release was recorded for 900 seconds, which at the same time would allow incubation for the antagonists. After the initial incubation period, an agonist would be added and the response was recorded for 300 seconds. Intracellular release of calcium was recorded via fluorescence measurements at wavelength of 485 nm for excitation and 520 nm for emission.

Setting [1] is: Table 6, competitive binding with [^125I]-C3a, HMDM, read-out: IC50 (converted).
Where [2] appears, read: Table 9, Ca^2+ mobilization, HMDM, read-out: EC50.
[3] abbreviates: Table 6, competitive binding with [^125I]-C3a, HMDM, read-out: pIC50 ± SEM (converted).
The mark [4] stands for this setting: Table 8, HMDM, read-out: Receptor Binding Affinity ^125I IC50.
Setting [5] is: Table 10, HMDM, read-out: Antagonist Activity Ca^2+ IC50.
The mark [6] stands for this setting: Table 6, competitive binding with [^125I]-C3a, HMDM.
Setting [7] is: Table 9, Ca^2+ mobilization, HMDM.

For `Cc1nc(C(c2ccccc2)c2ccccc2)n(C)c1C(=O)N[C@@H](CCCNC(=N)N)C(=O)O` [Compound 98, 2-Benzhydryl-1,4-Dimethyl imidazole-5-carboxyl-Arginine], the IC50 at C3a receptor (C3aR) (setting [1]) was 31 nM. Moreover, the EC50 at C3aR (setting [2]) was determined as 40 nM.
With `Cc1nc([C@H](CC(C)C)NC(=O)OC(C)(C)C)sc1C(=O)N[C@@H](CCCNC(=N)N)C(=O)O` [Compound 82, Boc-Leucine-thiazole-Arginine-OH], the IC50 on C3a receptor (C3aR) (setting [1]) was 375 nM; on C3aR (Table 13, calcium release from HMDM, read-out: Antagonist Activity IC50) it was 200 nM.
Take `Cc1oc([C@H](CC(C)C)NC(=O)Cc2ccc(C(F)(F)F)cc2)nc1C(=O)N[C@@H](CCCNC(=N)N)C(=O)O` [Compound 36, 4-(Trifluoromethyl)-phenylacetic acid-Leucine-5-Methyl-Oxazole-Arginine]: the remaining activity at 20 µM on C3a receptor (C3aR) is 61%. Moreover, the Emax at 10 µM on C3aR was found to be 50%.
Regarding `Cc1nc(C(c2ccccc2)c2ccccc2)sc1C(=O)N[C@@H](CCCNC(=N)N)C(=O)O` [Compound 59, 2-Diphenylmethyl-4-methyl thiazole-5-carboxyl-Arg-OH], the IC50 is 38 nM at C3a receptor (C3aR) (setting [1]); 91.2 nM at C3a receptor (C3aR) (setting [3]); 38 nM at C3a receptor (C3aR) (setting [4]); 91 nM at C3a receptor (C3aR) (Table 12, read-out: Receptor Binding Affinity IC50); 12.6 nM at C3a receptor (C3aR) (Table 14, binding affinity for C3aR on HMDM, read-out: -Log IC50 (converted)); 1000 nM on C3aR (setting [5]). The concentration for a half-maximal effect (EC50) at C3aR (setting [2]) worked out at 74800 nM; at C3aR (Table 12, read-out: Apparent Agonist Activity EC50), 74800 nM.
`CC[C@H](C)[C@H](NC(=O)c1ccc(OC)cc1OC)c1nc(C(=O)N[C@@H](CCCNC(=N)N)C(=O)O)co1` [Compound 23, 2,4-Dimethoxybenzoic acid-isoleucine-oxazole-arginine-OH]: the “pIC50 ± SEM” value at C3a receptor (C3aR) (setting [6]) turned out to be 6.06 ± 0.13. For the same compound, on C3a receptor (C3aR) (setting [1]), the IC50 was 872 nM. Also, the “pEC50 ± SEM” value on C3aR (setting [7]) amounted to 6.07 ± 0.13. Moreover, on C3aR (setting [2]), the half-maximal effective concentration (EC50) was 849 nM.
As for `CC[C@H](C)[C@H](NC(=O)c1ccccc1)c1nc(C(=O)N[C@@H](CCCNC(=N)N)C(=O)O)co1` [Compound 6, Benzoyl Isoleucine Oxazole Arginine-OH], the “pIC50 ± SEM” value at C3a receptor (C3aR) (setting [6]) turned out to be 7.58 ± 0.07. At C3a receptor (C3aR) (setting [1]), the IC50 was 26 nM. Moreover, the “pEC50 ± SEM” value at C3aR (setting [7]) stood at 5.30 ± 0.18. The concentration giving a half-maximal response (EC50) on C3aR (setting [2]) stood at 5000 nM.
In the case of `N=C(N)NCCC[C@H](NC(=O)c1oc(C(c2ccccc2)c2ccccc2)nc1-c1ccccc1)C(=O)O` [Compound 66, 2-Diphenylmethyl-4-phenyl oxazole-5-carboxyl-Arg-OH], the figures for the IC50 on C3a receptor (C3aR) (setting [4]) and at C3aR (setting [5]) were 123 nM and 2000 nM, respectively.
On to `N=C(N)NCCC[C@H](NC(=O)c1noc(C(c2ccccc2)c2ccccc2)n1)C(=O)O` [Compound 68, 5-Diphenylmethyl-1-oxa-2,4-diazole-3-carboxyl-Arginine-OH], for which the IC50 on C3a receptor (C3aR) (setting [4]) is 447 nM; at C3aR (setting [5]), 1200 nM.
Regarding `CC(C)C[C@H](NC(=O)OC(C)(C)C)c1nc(C(=O)N[C@@H](CCCNC(=N)N)C(=O)O)c(-c2ccccc2)o1` [Compound 50, Boc-Leucine-5-Phenyl-Oxazole-Arginine], the IC50 was 37.2 nM on C3a receptor (C3aR) (setting [3]); 37.2 nM at C3a receptor (C3aR) (Table 11, [^125I]-C3a, HMDM, read-out: Receptor Binding Affinity pIC50 ± SE (converted)); 16.5 nM on C3aR (Table 11, Ca^2+ mobilisation, HMDM, read-out: Apparent Antagonist Activity IC50). For the same compound, at C3aR (Table 11), the “Apparent Antagonist Activity pEC50 ± SE (symbol)” value is “* (The compounds show no agonist activity in calcium mobilisation assays up to 100 μM.)”.
`CC[C@H](C)[C@H](NC(=O)Cc1c[nH]c2ccccc12)c1nc(C(=O)N[C@@H](CCCNC(=N)N)C(=O)O)co1` [Compound 9, 2-(1H-indol-3-yl)acetic acid-Isoleucine-Oxazole-Arginine-OH]: the “pIC50 ± SEM” value at C3a receptor (C3aR) (setting [6]) came to 6.82 ± 0.10. Besides, the IC50 at C3a receptor (C3aR) (setting [1]) is 152 nM. On C3aR (setting [7]), the “pEC50 ± SEM” value is recorded as 7.14 ± 0.19. At C3aR (setting [2]), the concentration giving a half-maximal response (EC50) amounted to 73 nM.
For the compound `CC(C)(C)OC(=O)N[C@@H](CC1CCCCC1)c1nc(C(=O)N[C@@H](CCCNC(=N)N)C(=O)O)co1` [Compound 5, Boc-L-Cyclohexylalanine-Oxazole-Arg], on C3a receptor (C3aR) (setting [1]), the IC50 was 82 nM. For the same compound, the EC50 on C3aR (setting [2]) came to 135 nM.
On to `Cc1oc([C@H](CC(C)C)NC(=O)c2cc3ccccc3o2)nc1C(=O)N[C@@H](CCCNC(=N)N)C(=O)O` [Compound 26, Benzofuran carboxylic acid-Leucine-5-Methyl-Oxazole-Arginine], for which, on C3a receptor (C3aR), the remaining activity at 20 µM came out at 19%. Also, the Emax at 10 µM on C3aR is 84%.
In the case of `Cc1oc([C@H](CC(C)C)NC(=O)c2ccccn2)nc1C(=O)N[C@@H](CCCNC(=N)N)C(=O)O` [Compound 29, Picolinic acid-Leucine-5-Methyl-Oxazole-Arginine], the remaining activity at 20 µM on C3a receptor (C3aR) came out at 31%. Also, on C3aR, the Emax at 10 µM was determined as 77%.
Turning to `N=C(N)NCCC[C@H](NC(=O)c1nnc(C(c2ccccc2)c2ccccc2)o1)C(=O)O` [Compound 69, 2-Diphenylmethyl-1-oxa-3,4-diazole-5-carboxyl-Arginine-OH], the IC50 was found to be 2580 nM on C3a receptor (C3aR) (setting [4]) and 24000 nM on C3aR (setting [5]).
In the case of `CC(C)C[C@H](NC(=O)Cc1ccc(F)cc1)c1nc(C(=O)N[C@@H](CCCNC(=N)N)C(=O)O)co1` [Compound 24, 2-(4-fluorophenyl)acetic acid-Leucine-Oxazole-Arginine-OH], the “pIC50 ± SEM” value at C3a receptor (C3aR) (setting [6]) is listed as 6.99 ± 0.10. The IC50 on C3a receptor (C3aR) (setting [1]) is 102 nM. Moreover, the “pEC50 ± SEM” value on C3aR (setting [7]) was 6.28 ± 0.16. Also, the EC50 on C3aR (setting [2]) came to 527 nM.
For `Cc1oc([C@H](CC(C)C)NC(=O)c2cccnc2)nc1C(=O)N[C@@H](CCCNC(=N)N)C(=O)O` [Compound 30], the remaining activity at 20 µM on C3a receptor (C3aR) worked out at 29%. Further, on C3aR, the Emax at 10 µM stood at 68%.
For `CC[C@H](C)[C@H](NC(=O)C1CCCc2ccccc21)c1nc(C(=O)N[C@@H](CCCNC(=N)N)C(=O)O)co1` (stereo partly drawn) [Compound 21, Tetrahydronapthalene-isoleucine-oxazole-arginine-OH], on C3a receptor (C3aR) (setting [6]), the “pIC50 ± SEM” value came out at 6.98 ± 0.11. Also, the IC50 on C3a receptor (C3aR) (setting [1]) is 104 nM. The “pEC50 ± SEM” value on C3aR (setting [7]) is reported as 6.62 ± 0.28. Moreover, the EC50 at C3aR (setting [2]) turned out to be 240 nM.
In the case of `COc1ccc(CC(=O)N[C@@H](CC(C)C)c2nc(C(=O)N[C@@H](CCCNC(=N)N)C(=O)O)c(C)o2)cc1OC` [Compound 43, 3,4-Dimethoxy-phenyl acetic acid-Leucine-5-Methyl-Oxazole-Arginine], the remaining activity at 20 µM at C3a receptor (C3aR) is 65%. Also, the Emax at 10 µM at C3aR was 67%.
In the case of `N=C(N)NCCC[C@H](NC(=O)c1nc(C(c2ccccc2)c2ccccc2)[nH]c1-c1ccccc1)C(=O)O` [Compound 62, 2-Diphenylmethyl-4-phenyl imidazole-5-carboxyl-Arg-OH], the IC50 on C3a receptor (C3aR) (setting [4]) came out at 46 nM; on C3aR (setting [5]) it was 600 nM. For the same compound, the 50% effective concentration (EC50) on C3aR (Table 10, HMDM, read-out: Agonist Activity EC50) is above 100000 nM.
